{"source": "patent US20240041991A1", "about": "“STABLE LIQUID DISPERSINB COMPOSITIONS” (KANE BIOTECH INC., priority 2020, published 2024)", "tested_on": "DispersinB", "assay_type": "biochemical, Aggregatibacter actinomycetemcomitans", "details": "for % enzymatic activity of DispersinB (Mean): polyol % as in label; for temperature stabilizing effect on DispersinB at elevated temperatures: 42° C., 52° C., and 62° C.", "description": "Samples from each formula was incubated at 3 different temperatures (42° C., 52° C. and 62° C.) for 3 hours. Following a 3 hour incubation, the samples were brought to room temperature for enzymatic activity assay.\nTwo-tailed paired T-test was performed by to compare each polyol containing treatment with the treatment devoid of polyol. Treatment with probability values (p) less than 5% (0.05) was considered significant.", "note": "Where two headings read alike, the source gives them in different places. Marks after values point to notes of the source that are not given here.", "data": [{"smiles": "OC[C@@H](O)[C@@H](O[C@H]1O[C@H](CO)[C@@H](O)[C@H](O)[C@H]1O)[C@H](O)[C@@H](O)CO", "note": "[Maltitol, 4-O-α-D-Glucopyranosyl-D-glucitol]", "values": [{"measurement": "% enzymatic activity of DispersinB (Mean)", "setting": "4° C., freshly made control without polyol = 100%, listed as 1% Maltitol", "value": 102, "unit": "%"}, {"measurement": "% enzymatic activity of DispersinB (Mean)", "setting": "4° C., freshly made control without polyol = 100%, listed as 2.5% Maltitol", "value": 99, "unit": "%"}, {"measurement": "% enzymatic activity of DispersinB (Mean)", "setting": "4° C., freshly made control without polyol = 100%, listed as 5% Maltitol", "value": 95, "unit": "%"}, {"measurement": "% enzymatic activity of DispersinB (Mean)", "setting": "4° C., freshly made control without polyol = 100%, listed as 10% Maltitol", "value": "138* %"}, {"measurement": "% enzymatic activity of DispersinB (Mean)", "setting": "4° C., freshly made control without polyol = 100%, listed as 15% Maltitol", "value": 104, "unit": "%"}, {"measurement": "% enzymatic activity of DispersinB (Mean)", "setting": "4° C., freshly made control without polyol = 100%, listed as 20% Maltitol", "value": 107, "unit": "%"}, {"measurement": "% enzymatic activity of DispersinB (Mean)", "setting": "4° C., freshly made control without polyol = 100%, listed as 25% Maltitol", "value": 102, "unit": "%"}, {"measurement": "% enzymatic activity of DispersinB (Mean)", "setting": "42° C. for 3 hours, control without polyol = 100%, listed as 1% Maltitol", "value": "106* %"}, {"measurement": "% enzymatic activity of DispersinB (Mean)", "setting": "42° C. for 3 hours, control without polyol = 100%, listed as 2.5% Maltitol", "value": "110* %"}, {"measurement": "% enzymatic activity of DispersinB (Mean)", "setting": "42° C. for 3 hours, control without polyol = 100%, listed as 5% Maltitol", "value": "107* %"}, {"measurement": "% enzymatic activity of DispersinB (Mean)", "setting": "42° C. for 3 hours, control without polyol = 100%, listed as 10% Maltitol", "value": "143* %"}, {"measurement": "% enzymatic activity of DispersinB (Mean)", "setting": "42° C. for 3 hours, control without polyol = 100%, listed as 15% Maltitol", "value": "110* %"}, {"measurement": "% enzymatic activity of DispersinB (Mean)", "setting": "42° C. for 3 hours, control without polyol = 100%, listed as 20% Maltitol", "value": "116* %"}, {"measurement": "% enzymatic activity of DispersinB (Mean)", "setting": "42° C. for 3 hours, control without polyol = 100%, listed as 25% Maltitol", "value": "129* %"}, {"measurement": "% enzymatic activity of DispersinB (Mean)", "setting": "52° C. for 3 hours, control without polyol = 100%, listed as 1% Maltitol", "value": "17* %"}, {"measurement": "% enzymatic activity of DispersinB (Mean)", "setting": "52° C. for 3 hours, control without polyol = 100%, listed as 2.5% Maltitol", "value": "24* %"}, {"measurement": "% enzymatic activity of DispersinB (Mean)", "setting": "52° C. for 3 hours, control without polyol = 100%, listed as 5% Maltitol", "value": "37* %"}, {"measurement": "% enzymatic activity of DispersinB (Mean)", "setting": "52° C. for 3 hours, control without polyol = 100%, listed as 10% Maltitol", "value": "111* %"}, {"measurement": "% enzymatic activity of DispersinB (Mean)", "setting": "52° C. for 3 hours, control without polyol = 100%, listed as 15% Maltitol", "value": "102* %"}, {"measurement": "% enzymatic activity of DispersinB (Mean)", "setting": "52° C. for 3 hours, control without polyol = 100%, listed as 20% Maltitol", "value": "113* %"}, {"measurement": "% enzymatic activity of DispersinB (Mean)", "setting": "52° C. for 3 hours, control without polyol = 100%, listed as 25% Maltitol", "value": "120* %"}, {"measurement": "% enzymatic activity of DispersinB (Mean)", "setting": "62° C. for 3 hours, control without polyol = 100%, listed as 1% Maltitol", "value": 0, "unit": "%"}, {"measurement": "% enzymatic activity of DispersinB (Mean)", "setting": "62° C. for 3 hours, control without polyol = 100%, listed as 2.5% Maltitol", "value": 0, "unit": "%"}, {"measurement": "% enzymatic activity of DispersinB (Mean)", "setting": "62° C. for 3 hours, control without polyol = 100%, listed as 5% Maltitol", "value": 0, "unit": "%"}, {"measurement": "% enzymatic activity of DispersinB (Mean)", "setting": "62° C. for 3 hours, control without polyol = 100%, listed as 10% Maltitol", "value": "6* %"}, {"measurement": "% enzymatic activity of DispersinB (Mean)", "setting": "62° C. for 3 hours, control without polyol = 100%, listed as 15% Maltitol", "value": "8* %"}, {"measurement": "% enzymatic activity of DispersinB (Mean)", "setting": "62° C. for 3 hours, control without polyol = 100%, listed as 20% Maltitol", "value": "7* %"}, {"measurement": "% enzymatic activity of DispersinB (Mean)", "setting": "62° C. for 3 hours, control without polyol = 100%, listed as 25% Maltitol", "value": "5* %"}]}, {"smiles": "OC[C@@H](O)[C@@H](O)[C@H](O)[C@H](O)CO", "note": "[Mannitol]", "values": [{"measurement": "% enzymatic activity of DispersinB (Mean)", "setting": "4° C., freshly made control without polyol = 100%, listed as 1% Mannitol", "value": 98, "unit": "%"}, {"measurement": "% enzymatic activity of DispersinB (Mean)", "setting": "4° C., freshly made control without polyol = 100%, listed as 2.5% Mannitol", "value": 100, "unit": "%"}, {"measurement": "% enzymatic activity of DispersinB (Mean)", "setting": "4° C., freshly made control without polyol = 100%, listed as 5% Mannitol", "value": 98, "unit": "%"}, {"measurement": "% enzymatic activity of DispersinB (Mean)", "setting": "4° C., freshly made control without polyol = 100%, listed as 10% Mannitol", "value": 102, "unit": "%"}, {"measurement": "% enzymatic activity of DispersinB (Mean)", "setting": "4° C., freshly made control without polyol = 100%, listed as 12% Mannitol", "value": 97, "unit": "%"}, {"measurement": "% enzymatic activity of DispersinB (Mean)", "setting": "42° C. for 3 hours, control without polyol = 100%, listed as 1% Mannitol", "value": 77, "unit": "%"}, {"measurement": "% enzymatic activity of DispersinB (Mean)", "setting": "42° C. for 3 hours, control without polyol = 100%, listed as 2.5% Mannitol", "value": "87* %"}, {"measurement": "% enzymatic activity of DispersinB (Mean)", "setting": "42° C. for 3 hours, control without polyol = 100%, listed as 5% Mannitol", "value": "88* %"}, {"measurement": "% enzymatic activity of DispersinB (Mean)", "setting": "42° C. for 3 hours, control without polyol = 100%, listed as 10% Mannitol", "value": "87* %"}, {"measurement": "% enzymatic activity of DispersinB (Mean)", "setting": "42° C. for 3 hours, control without polyol = 100%, listed as 12% Mannitol", "value": "86* %"}, {"measurement": "temperature stabilizing effect on DispersinB at elevated temperatures", "value": "did not exhibit temperature stabilizing effects"}, {"measurement": "% enzymatic activity of DispersinB (Mean)", "setting": "52° C. for 3 hours, control without polyol = 100%, listed as 5% Mannitol", "value": "1* %"}, {"measurement": "% enzymatic activity of DispersinB (Mean)", "setting": "52° C. for 3 hours, control without polyol = 100%, listed as 10% Mannitol", "value": "14* %"}, {"measurement": "% enzymatic activity of DispersinB (Mean)", "setting": "52° C. for 3 hours, control without polyol = 100%, listed as 12% Mannitol", "value": "53* %"}]}, {"smiles": "OCC(O)CO", "note": "[glycerol, Propane-1,2,3-triol]", "values": [{"measurement": "% enzymatic activity of DispersinB (Mean)", "setting": "4° C., freshly made control without polyol = 100%, listed as Glycerol 1%", "value": "117* %"}, {"measurement": "% enzymatic activity of DispersinB (Mean)", "setting": "4° C., freshly made control without polyol = 100%, listed as Glycerol 2.5%", "value": "114* %"}, {"measurement": "% enzymatic activity of DispersinB (Mean)", "setting": "4° C., freshly made control without polyol = 100%, listed as Glycerol 5%", "value": "116* %"}, {"measurement": "% enzymatic activity of DispersinB (Mean)", "setting": "4° C., freshly made control without polyol = 100%, listed as Glycerol 10%", "value": "124* %"}, {"measurement": "% enzymatic activity of DispersinB (Mean)", "setting": "4° C., freshly made control without polyol = 100%, listed as Glycerol 20%", "value": "128* %"}, {"measurement": "% enzymatic activity of DispersinB (Mean)", "setting": "4° C., freshly made control without polyol = 100%, listed as Glycerol 30%", "value": "131* %"}, {"measurement": "% enzymatic activity of DispersinB (Mean)", "setting": "42° C. for 3 hours, control without polyol = 100%, listed as Glycerol 1%", "value": "94* %"}, {"measurement": "% enzymatic activity of DispersinB (Mean)", "setting": "42° C. for 3 hours, control without polyol = 100%, listed as Glycerol 2.5%", "value": "98* %"}, {"measurement": "% enzymatic activity of DispersinB (Mean)", "setting": "42° C. for 3 hours, control without polyol = 100%, listed as Glycerol 5%", "value": "90* %"}, {"measurement": "% enzymatic activity of DispersinB (Mean)", "setting": "42° C. for 3 hours, control without polyol = 100%, listed as Glycerol 10%", "value": "115* %"}, {"measurement": "% enzymatic activity of DispersinB (Mean)", "setting": "42° C. for 3 hours, control without polyol = 100%, listed as Glycerol 20%", "value": "112* %"}, {"measurement": "% enzymatic activity of DispersinB (Mean)", "setting": "42° C. for 3 hours, control without polyol = 100%, listed as Glycerol 30%", "value": "116* %"}, {"measurement": "temperature stabilizing effect on DispersinB at elevated temperatures", "value": "exhibited temperature stabilizing effect"}, {"measurement": "% enzymatic activity of DispersinB (Mean)", "setting": "52° C. for 3 hours, control without polyol = 100%, listed as Glycerol 5%", "value": "16* %"}, {"measurement": "% enzymatic activity of DispersinB (Mean)", "setting": "52° C. for 3 hours, control without polyol = 100%, listed as Glycerol 10%", "value": "31* %"}, {"measurement": "% enzymatic activity of DispersinB (Mean)", "setting": "52° C. for 3 hours, control without polyol = 100%, listed as Glycerol 20%", "value": "92* %"}, {"measurement": "% enzymatic activity of DispersinB (Mean)", "setting": "52° C. for 3 hours, control without polyol = 100%, listed as Glycerol 30%", "value": "93* %"}]}]}
